Assay results from the supplement of paper PMC10307832.

How the values were obtained:
Experiment in all cases: relative viability (nuclei count vs DMSO), 5 days (fraction); higher = more cells survive
VE-821 + OSI-027 = compound: CS(=O)(=O)c1ccc(-c2cnc(N)c(C(=O)Nc3ccccc3)n2)cc1 [VE-821] + COc1cccc2cc(-c3nc([C@H]4CC[C@H](C(=O)O)CC4)n4ncnc(N)c34)[nH]c12 [OSI-027] (partner 0.5 µM)
Method in brief: (§1)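 Each reported value is a median over duplicate plates. It expresses relative viability: treated-well nuclei count divided by vehicle-well nuclei count. Lung cancer cell lines in 1536-well plates were dosed by pin tool a day after seeding, alone with one drug or with a fixed anchor-drug dose plus five library-drug doses (not always all listed) in √10 steps, and nuclei were counted after 5 days.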

VE-821 + Decitabine = compound: CS(=O)(=O)c1ccc(-c2cnc(N)c(C(=O)Nc3ccccc3)n2)cc1 [VE-821] + Nc1ncn([C@H]2C[C@H](O)[C@@H](CO)O2)c(=O)n1 [Decitabine] (partner 2 µM)
Method in brief: as §1

Vismodegib + Navitoclax = compound: CS(=O)(=O)c1ccc(C(=O)Nc2ccc(Cl)c(-c3ccccn3)c2)c(Cl)c1 [Vismodegib] + CC1(C)CCC(c2ccc(Cl)cc2)=C(CN2CCN(c3ccc(C(=O)NS(=O)(=O)c4ccc(N[C@H](CCN5CCOCC5)CSc5ccccc5)c(S(=O)(=O)C(F)(F)F)c4)cc3)CC2)C1 [Navitoclax] (partner 0.5 µM)
Method in brief: as §1

Vismodegib + AZD7762 = compound: CS(=O)(=O)c1ccc(C(=O)Nc2ccc(Cl)c(-c3ccccn3)c2)c(Cl)c1 [Vismodegib] + NC(=O)Nc1cc(-c2cccc(F)c2)sc1C(=O)N[C@H]1CCCNC1 [AZD7762] (partner 0.2 µM)
Method in brief: as §1

| Cell Line | relative viability (VE-821 + OSI-027; first compound 0.08 µM) | relative viability (VE-821 + OSI-027; first compound 0.253 µM) | relative viability (VE-821 + OSI-027; first compound 0.8 µM) | relative viability (VE-821 + OSI-027; first compound 2.53 µM) | relative viability (VE-821 + OSI-027; first compound 8 µM) | relative viability (VE-821 + Decitabine; first compound 0.08 µM) | relative viability (VE-821 + Decitabine; first compound 0.253 µM) | relative viability (VE-821 + Decitabine; first compound 0.8 µM) | relative viability (VE-821 + Decitabine; first compound 2.53 µM) | relative viability (VE-821 + Decitabine; first compound 8 µM) | relative viability (Vismodegib + Navitoclax; first compound 0.08 µM) | relative viability (Vismodegib + Navitoclax; first compound 0.253 µM) | relative viability (Vismodegib + Navitoclax; first compound 0.8 µM) | relative viability (Vismodegib + Navitoclax; first compound 2.53 µM) | relative viability (Vismodegib + Navitoclax; first compound 8 µM) | relative viability (Vismodegib + AZD7762; first compound 0.08 µM) | relative viability (Vismodegib + AZD7762; first compound 0.253 µM) | relative viability (Vismodegib + AZD7762; first compound 0.8 µM) | relative viability (Vismodegib + AZD7762; first compound 2.53 µM) | relative viability (Vismodegib + AZD7762; first compound 8 µM) |
| --- | --- | --- | --- | --- | --- | --- | --- | --- | --- | --- | --- | --- | --- | --- | --- | --- | --- | --- | --- | --- |
| NCI-H1666 | 0.903 | 0.785 | 0.948 | 0.936 | 0.703 | 0.698 | 0.702 | 0.786 | 0.753 | 0.688 | 1.08 | 1.02 | 1.15 | 0.936 | 0.934 | 0.878 | 0.772 | 0.882 | 0.751 | 0.827 |
| EPLC-272H | 0.286 | 0.268 | 0.296 | 0.333 | 0.21 | 0.395 | 0.359 | 0.404 | 0.408 | 0.345 | 1.01 | 1.2 | 1.09 | 1.09 | 1.09 | 0.3 | 0.166 | 0.304 | 0.163 | 0.257 |
| NCI-H838 | 0.431 | 0.341 | 0.329 | 0.425 | 0.435 | 0.461 | 0.488 | 0.564 | 0.559 | 0.456 | 1.1 | 1.23 | 1.11 | 1.21 | 1.18 | 0.799 | 0.876 | 0.918 | 0.888 | 0.975 |
| NCI-H2087 | 0.537 | 0.576 | 0.515 | 0.683 | 0.495 | 0.381 | 0.286 | 0.309 | 0.363 | 0.275 | 0.952 | 0.969 | 0.961 | 0.954 | 0.943 | 1.28 | 1.14 | 1.14 | 1.33 | 1.36 |
| LC-2-ad | 0.878 | 0.945 | 0.986 | 0.928 | 0.789 | 0.747 | 0.769 | 0.955 | 0.865 | 0.916 | 0.573 | 0.447 | 0.422 | 0.522 | 0.553 | 0.823 | 0.822 | 0.84 | 0.864 | 0.751 |
| NCI-H2405 | 0.634 | 0.632 | 0.628 | 0.751 | 0.686 | 0.805 | 0.698 | 0.775 | 0.814 | 0.761 |  | 0.93 | 0.86 | 0.712 | 0.904 | 0.739 | 0.711 | 0.637 | 0.706 | 0.73 |
| HCC-366 | 0.931 | 0.789 | 0.605 | 0.492 | 0.138 | 0.398 | 0.381 | 0.323 | 0.226 | 0.121 | 0.991 | 0.98 | 0.974 | 1.1 | 1.09 | 0.269 | 0.217 | 0.292 | 0.258 | 0.373 |
| NCI-H3122 | 1.01 | 0.958 | 1 | 1.08 | 0.758 | 0.474 | 0.482 | 0.485 | 0.46 | 0.428 | 1.01 | 1.04 | 0.994 | 0.984 | 1.02 | 0.959 | 0.953 | 0.959 | 0.965 | 0.955 |
| LU99A | 0.298 | 0.304 | 0.292 | 0.257 | 0.244 | 1.01 | 0.763 | 0.881 | 0.801 | 0.395 | 0.722 | 0.794 | 0.79 | 0.881 | 0.71 | 0.333 | 0.324 | 0.537 | 0.353 | 0.325 |
| NCI-H1650 | 0.757 | 0.542 | 0.546 | 0.613 | 0.415 | 0.448 | 0.369 | 0.322 | 0.437 | 0.389 | 1.14 | 1.27 | 1.2 | 1.17 | 1.14 |  |  |  |  |  |
| EMC-BAC-2 | 0.398 | 0.319 | 0.372 | 0.388 | 0.346 | 1.07 | 0.961 | 0.996 | 0.969 | 0.826 | 1.11 | 1.15 | 1.23 | 1.13 | 1.19 | 1.16 | 1.1 | 1.06 | 1.07 | 1.08 |
| HCC-78 | 0.385 | 0.349 | 0.372 | 0.401 | 0.326 | 0.619 | 0.597 | 0.719 | 0.785 | 0.699 | 0.703 | 0.759 | 0.638 | 0.707 | 0.78 | 0.575 | 0.605 | 0.544 | 0.542 | 0.634 |
| NCI-H1734 | 0.701 | 0.529 | 0.599 | 0.529 | 0.331 | 0.585 | 0.473 | 0.515 | 0.522 | 0.448 | 0.878 | 0.835 | 0.846 | 0.77 | 0.897 | 0.575 | 0.447 | 0.552 | 0.556 | 0.488 |
| COR-L23 | 0.9 | 0.751 | 0.797 | 0.766 | 0.63 | 0.538 | 0.459 | 0.599 | 0.58 | 0.468 | 1.02 | 1.03 | 0.959 | 0.951 | 1.14 |  |  |  |  |  |
| RERF-LC-KJ | 0.548 | 0.523 | 0.535 | 0.614 | 0.49 | 0.731 | 0.681 | 0.633 | 0.725 | 0.609 | 0.997 | 1.08 | 0.85 | 0.756 | 0.802 | 1.09 | 0.881 | 0.959 | 0.974 | 0.967 |
| NCI-H1437 | 1.12 | 0.831 | 0.838 | 0.851 | 0.756 | 0.579 | 0.488 | 0.593 | 0.598 | 0.497 | 0.945 | 1.08 | 1.09 | 1.07 | 1.1 | 1.02 | 1.11 | 1.1 | 1.02 | 1.02 |
